This is an account of results in PMC6657668, “Porcine Beta-Defensin 2 Provides Protection Against Bacterial Infection by a Direct Bactericidal Activity and Alleviates Inflammation via Interference With the TLR4/NF-κB Pathway” (Frontiers in Immunology, 2019).

Like-named read-outs stand apart in the source and are kept apart here. Where no end group is shown, it is not given here.

For assay [1], the system named is RAW 264.7 cells. Nature of the assay: Cytokine levels of RAW 264.7 cells after treatment with LPS (ELISA), with or without pathway inhibitor. The format is cell-based, mouse. To be noted: 1 h pre-treatment, LPS 1 μg/ml, 16 h, n = 6. On the procedure: RAW 264.7 cells and RAW 264.7 cells stably expressing PBD-2 were pre-treated with S. Typhimurium at MOI = 10:1 for 1 h or with LPS (1 μg/ml) for 16 h, washed with PBS twice and incubated with RPMI 1640 that contained PBS or PBD-2 (10 μg/mL) for 16 h. RAW 264.7 cells stably expressing PBD-2 were maintained in RPMI 1640 that contained PBS for 16 h (n = 6 for each group). The expression levels of proinflammatory cytokines in the cell culture supernatant were determined through ELISA in accordance with the manufacturer's instruction.
In the inhibition assay, RAW 264.7 cells were pre-treated with 4 μg/ml NF-κB inhibitor (Celastrol, # ant-cls, InvivoGen®, San Diego, CA, USA) or 1 μg/ml TLR4 inhibitor (CLI-095, # tlrl-cli95, InvivoGen®, San Diego, CA, USA) for 1 h. Subsequently, RAW 264.7 cells were treated with LPS (1 μg/ml) alone or together with PBD-2 (10 μg/mL) for 16 h (n = 6 each group). RAW 264.7 cells treated with PBS were used as control. The levels of the cytokines in the supernatant of the cells were detected through ELISA.

Assay [2] relates to NF-κB. Nature of the assay: NF-κB promoter activity, luciferase reporter assay in RAW 264.7 cells. The format is cell-based, mouse. To be noted: CLI-095 1 μg/ml, 1 h pre-treatment; LPS 1 μg/ml, 24 h; n = 6. On the procedure:
A luciferase reporter assay was used to detect the promoter activity of NF-κB. RAW 264.7 cells were seeded in a 24-well plate for 24 h and then cotransfected with 800 ng/well of the NF-κB reporter plasmid (pGL3-Basic) and 20 ng/well of pLR-TK. WT […] luciferase (Rluc) served as the reporter gene control vector. […] In the inhibition assay, the cells were pre-treated with 1 μg/ml TLR4 inhibitor for 1 h and treated with LPS (1 μg/ml) alone or together with PBD-2 (10 μg/mL) for 24 h (n = 6 each group). Luciferase units were detected to show the promoter activity of NF-κB ([28]).
(A reporter such as luciferase makes a cellular process visible.)

The test system of assay [3] is release of inflammatory cytokines. The following applies: cited from earlier work. The text has this: Bacterial drug resistance has become a global concern. Endeavors in search for antibiotic substitutes are desperately needed. Antimicrobial peptides (AMPs) are natural anti-infective agents identified in various species and implicated in innate immunity ([1]). […] AMPs not only have a direct bactericidal activity but also regulate immune and inflammatory responses ([3]). As bactericides, cationic AMPs exert bactericidal act ... || The colitis caused by S. Typhimurium mainly results from intestinal mucosal inflammation after the breakage of intestinal epithelial barrier by pathogens ([26]).

For assay [4] the following is noted: cited from earlier work. An excerpt: (§1) The mechanism of how AMPs modulate immune signaling pathways has yet to be fully understood. […] Instead, it interacted with TLR4. […] Therefore, th ...
The test system of assay [5] is TLR3. To be noted: TLR3 ligand poly (I:C); ref [6]; cited from earlier work.
Excerpt: as §1

Assay [6] concerns Bordetella pertussis. The following applies: pigs; ref [35]; cited from earlier work. The text has this: (§2) The antibiotic resistance of pathogenic bacteria has become a global threat ([30]). Defensins are natural peptides secreted by many species and implicated in resisting bacterial infection ([31]). PBD-2 is one of the defensins expressed in pigs. […] The invasion of S. Typhimurium can increase the expression of PBD-2 in porcine epithelial cells ([32]). […] PBD-2 also improves the growth perf ...

The subject of assay [7] is intestinal epithelial cells. To be noted: cells transfected with genes encoding hBD-2 and hBD-3, infected with S. Typhimurium; vs untransfected; ref [44]; cited from earlier work. The text has this: The colitis caused by S. Typhimurium mainly results from intestinal mucosal inflammation after the breakage of intestinal epithelial barrier by pathogens ([26]).
For assay [8], the system named is TLR1. The following applies: ref [50]; cited from earlier work.
Excerpt: as §1

For assay [9], the system named is TLR2. To be noted: ref [50]; cited from earlier work.
Excerpt: as §1

The subject of assay [10] is signaling pathways downstream of TLR4. To be noted: MyD88-dependent and MyD88-independent pathways; ref [50]; cited from earlier work.
Excerpt: as §1

For assay [11] the following is noted: cited from earlier work.
Excerpt: as §2
The source holds these as a separate data set.

Assay [12] has as its target T1, TLR4, purified recombinant protein (Cloud-clone # RPA753Mu01) (UniProt Q9QUK6 26-638).
T1 construct: Toll-like receptor 4 (TLR4), bought recombinant protein; the vendor's data sheet is needed; also called purified TLR4; source: bought: Cloud-clone (# RPA753Mu01)
T1 sequence (looked up): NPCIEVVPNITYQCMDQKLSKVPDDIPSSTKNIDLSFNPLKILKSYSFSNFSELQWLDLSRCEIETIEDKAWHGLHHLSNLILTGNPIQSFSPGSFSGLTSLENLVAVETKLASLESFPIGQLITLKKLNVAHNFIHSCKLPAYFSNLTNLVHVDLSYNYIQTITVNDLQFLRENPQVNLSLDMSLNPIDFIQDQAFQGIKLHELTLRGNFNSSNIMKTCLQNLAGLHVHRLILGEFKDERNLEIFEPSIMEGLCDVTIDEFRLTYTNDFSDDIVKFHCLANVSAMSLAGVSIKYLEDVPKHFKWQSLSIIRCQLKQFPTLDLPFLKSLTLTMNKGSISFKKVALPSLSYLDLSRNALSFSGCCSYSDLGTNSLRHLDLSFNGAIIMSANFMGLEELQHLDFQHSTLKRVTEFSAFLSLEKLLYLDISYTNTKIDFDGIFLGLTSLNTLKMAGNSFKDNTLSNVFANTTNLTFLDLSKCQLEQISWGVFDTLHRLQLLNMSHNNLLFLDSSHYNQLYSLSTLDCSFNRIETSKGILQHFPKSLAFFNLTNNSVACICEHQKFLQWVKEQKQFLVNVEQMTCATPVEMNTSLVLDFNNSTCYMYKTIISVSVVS
Description: ITC; Nano-ITC, 25°C; PBD-2 in the syringe (0.215 mM), TLR4 in the calorimeter cell (0.016 to 0.050 mM); control: PBD-2 into PBS. To be noted: both partners purified. (In general: Isothermal titration calorimetry measures the heat released or taken up as one component is titrated into another.)

`CC1=C(O)C(=O)C=C2C1=CC=C1[C@@]2(C)CC[C@@]2(C)[C@@H]3C[C@](C)(C(=O)O)CC[C@]3(C)CC[C@]12C` [NF-κB inhibitor, Celastrol, reference compound]: in assay [1] (Celastrol 4 μg/ml), the “secretion of IL-1β triggered by LPS” value was “significantly reduced the secretion of TNF-α, IL-6, and IL-1β triggered by LPS”; the “secretion of IL-6 triggered by LPS” value is “significantly reduced the secretion of TNF-α, IL-6, and IL-1β triggered by LPS”; the “secretion of TNF-α triggered by LPS” value was “significantly reduced the secretion of TNF-α, IL-6, and IL-1β triggered by LPS”.

As for `CCOC(=O)C1=CCCC[C@H]1S(=O)(=O)Nc1ccc(F)cc1Cl` [TLR4 inhibitor, reference compound], in assay [1] (CLI-095 1 μg/ml), the “secretion of IL-1β triggered by LPS” value was “significantly reduced the secretion of TNF-α, IL-6, and IL-1β triggered by LPS”; the “secretion of IL-6 triggered by LPS” value is “significantly reduced the secretion of TNF-α, IL-6, and IL-1β triggered by LPS”; the “secretion of TNF-α triggered by LPS” value was “significantly reduced the secretion of TNF-α, IL-6, and IL-1β triggered by LPS”. Further, in [2], the “LPS-induced NF-κB promoter activity, TLR4 inhibitor” value is on record as “inhibited the LPS-induced promoter activity of NF-κB in RAW 264.7”.

As to “LL-37: human AMP (LLGDFFRKSKEKIGKEFKRIVQRIKDFLRNLVPRTES; Antibacterial peptide LL-37; UniProt P49913 134-170, looked up)”, the “release of inflammatory cytokines” value in assay [3] (ref [5]) was “suppress the release of inflammatory cytokines”. Further, the suppression of inflammation result in assay [3] (ref [6]) is given as “can suppress inflammation by inhibiting specific inflammatory signaling pathways”. Also, in assay [4] (ref [48]), the anti-endotoxin ability entry was “exert anti-endotoxin abilities by either disrupting LPS or inhibiting the LPS-induced production of TNF-α”. The TLR3-dependent immune responses result in [5] is “TLR3-dependent immune responses are blocked by LL-37”.

In the case of PR39, the anti-endotoxin ability entry in [4] (ref [49]) is recorded as “exert anti-endotoxin abilities by either disrupting LPS or inhibiting the LPS-induced production of TNF-α”.

As for “Porcine beta-defensin 1: another defensin from pigs and homolog of human beta-defensin 2 (NIGNSVSCLRNKGVCMPGKCAPKMKQIGTCGMPQVKCCKRK; ends and bridges not checked; cysteine pairing not given here; UniProt O62697 24-64, looked up)”, the “protection against Bordetella pertussis infection” value in assay [6] is recorded as “protects against Bordetella pertussis infection in pigs”.

Turning to “hBD3: human β-defensin 3 (GIINTLQKYYCRVRGGRCAVLSCLPKEEQIGKCSTRGRKCCRRKK; ends and bridges not checked; cysteine pairing not given here; UniProt P81534 23-67, looked up)”, in assay [3] (ref [7]), the suppression of inflammation entry is reported as “can suppress inflammation by inhibiting specific inflammatory signaling pathways”. The “TNF-α and IL-6 secretion” value in [3] (ref [43]) is “suppressing TNF-α and IL-6 secretion”. The “expression level of proinflammatory cytokines” value in assay [7] is recorded as “decreased expression level of proinflammatory cytokines”. The “binding to LPS” value in assay [4] (ref [50]) is on record as “does not bind to LPS”. Also, the “interaction with TLR1” value in assay [8] is “can interact with TLR1 and TLR2, leading to the activation of the MyD88-dependent pathway”. Also, the “interaction with TLR2” value in assay [9] is “can interact with TLR1 and TLR2, leading to the activation of the MyD88-dependent pathway”. Further, the LPS-induced inflammation result in assay [10] is recorded as “could inhibit the LPS-induced inflammation by repressing the signaling pathways downstream of TLR4”.

On to “hBD-1: β-defensin of human (DHYNCVSSGGQCLYSACPIFTKIQGTCYRGKAKCCK; ends and bridges not checked; cysteine pairing not given here; UniProt P60022 33-68, looked up)”, for which the “antibacterial effects in vivo” value in [11] (ref [36]) was “have antibacterial effects in vivo”.

Consider “hBD-2: β-defensin of human (GIGDPVTCLKSGAICHPVFCPRRYKQIGTCGLPGTKCCKKP; ends and bridges not checked; cysteine pairing not given here; UniProt O15263 24-64, looked up)”, for which the “antibacterial effects in vivo” value in assay [11] (ref [36]) is “have antibacterial effects in vivo”. In [7], the “expression level of proinflammatory cytokines” value is “decreased expression level of proinflammatory cytokines”.

“rMBD3: β-defensin 3 (rMBD3) of mice (KKINNPVSCLRKGGRCWNRCIGNTRQIGSCGVPFLKCCKRK; ends and bridges not checked; cysteine pairing not given here; UniProt Q9WTL0 23-63, looked up)”: the “antibacterial effects in vivo” value in assay [11] (mice, ref [37]) is “have antibacterial effects in vivo”.

B1: Porcine beta-defensin 2 (PBD-2), synthetic mature peptide (peptide)
peptide: DHYICAKKGGTCNFSPCPLFNRIEGTCYSGKAKCCIR
modifications: ends and bridges not checked; cysteine pairing not given here
notes: mature peptide of porcine beta-defensin 2 (PBD-2), pig; also called synthetic PBD-2; source: synthetic peptide (Neweast Biosciences, # 60001)
As to B1, the dissociation constant Kd in [12] was 3.75 µM.

For orientation: Kd means the constant that tells how readily two partners part at equilibrium.
